Laboratory results reported in ChEMBL document CHEMBL5725366, “Oxindole compounds carrying a nitrogen-bound spiro substituent and use thereof for treating vasopressin-related diseases” (2017).

biological target: T1, Vasopressin V1b receptor (Homo sapiens, UniProt P47901); assay: The nonspecific binding was determined with 1 μM AVP (Fluka 94836). All determinations were carried out as duplicate determinations. […] The liquid scintillation measurement took place in a Microbeta TriLux 12 (Wallac).
T1 sequence (P47901 whole entry): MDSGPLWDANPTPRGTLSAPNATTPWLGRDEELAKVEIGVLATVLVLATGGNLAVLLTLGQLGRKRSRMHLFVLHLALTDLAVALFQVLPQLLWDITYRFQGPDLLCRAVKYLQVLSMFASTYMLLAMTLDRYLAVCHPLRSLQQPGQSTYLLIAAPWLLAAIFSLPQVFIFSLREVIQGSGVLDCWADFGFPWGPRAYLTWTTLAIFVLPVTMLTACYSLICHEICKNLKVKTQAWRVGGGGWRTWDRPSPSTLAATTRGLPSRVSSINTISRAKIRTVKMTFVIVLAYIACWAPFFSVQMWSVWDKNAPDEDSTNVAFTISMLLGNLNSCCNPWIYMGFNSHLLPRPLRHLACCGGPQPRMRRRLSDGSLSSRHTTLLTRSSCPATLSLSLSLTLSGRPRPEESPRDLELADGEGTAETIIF

SMILES | Ki
CCOc1ccc(OC)c(C2(N3CC4(CN(C5CCN(C)CC5)C4)C3)C(=O)N(S(=O)(=O)c3ccc(OC)cc3)C3C=CC(C#N)=CC32)c1 (stereo not given) | in the range around 5.5 nM
CCOc1ccc(OC)c(C2(N3CC4(CN(C5CCN(C6COC6)CC5)C4)C3)C(=O)N(S(=O)(=O)c3ccc(OC)cn3)C3C=CC(C#N)=CC32)c1 (racemic) | in the range around 5.5 nM
COc1ccc(S(=O)(=O)N2C(=O)C(c3ccccc3OC)(N3CC4(CN(N5CCN(C)CC5)C4)C3)C3C=C(C#N)C=CC32)nc1 (racemic) | in the range around 5.5 nM
CCOc1ccc(OC)cc1[C@]1(N2CC3(CN(C4CCN(C)CC4)C3)C2)C(=O)N(S(=O)(=O)c2ccc(OC)nc2)C2C=CC(C#N)=CC21 (stereo not given in full) | in the range around 5.5 nM
COc1ccc(S(=O)(=O)N2C(=O)C(c3cccnc3OC(C)(F)F)(N3CC4(CN(C5CCN(C)CC5)C4)C3)C3C=C(C#N)C=CC32)nc1 (racemic) | in the range around 5.5 nM
COc1ccc(S(=O)(=O)N2C(=O)C(c3cccnc3OC)(N3CC4(CN(C5CCN(C)CC5)C4)C3)C3C=C(C#N)C=CC32)nc1 (racemic; form 1) | in the range around 5.5 nM
CCOc1ccc(OC)cc1C1(N2CC3(CN(N4CCN(C5COC5)CC4)C3)C2)C(=O)N(S(=O)(=O)c2ccc(OC)cn2)C2C=CC(C#N)=CC21 (racemic) | in the range around 5.5 nM
COc1ccc(S(=O)(=O)N2C(=O)C(c3ccc(F)cc3OC)(N3CC4(CN(C5CCN(C)CC5)C4)C3)C3C=C(C#N)C=CC32)nc1 (stereo not given) | in the range around 5.5 nM
COc1ccc(S(=O)(=O)N2C(=O)C(c3cccnc3OC)(N3CC4(CN(C5CCN(C)CC5)C4)C3)C3C=C(C#N)C=CC32)nc1 (racemic; form 2) | in the range around 5.5 nM
CCOc1ncccc1C1(N2CC3(CN(N4CCN(C)CC4)C3)C2)C(=O)N(S(=O)(=O)c2ccc(OC)cn2)C2C=CC(C#N)=CC21 (racemic) | in the range around 5.5 nM

Results, then the compound that gave them:

Ki | SMILES
in the range around 5.5 nM | CCOc1ccc(OC)c(C2(N3CC4(CN(C5CCN(C)CC5)C4)C3)C(=O)N(S(=O)(=O)c3ccc(OC)cn3)C3C=CC(C#N)=CC32)c1 (racemic; form 2)
in the range around 5.5 nM | COc1ccc(S(=O)(=O)N2C(=O)C(c3ccccc3OC)(N3CC4(CN(C5CCN(C)CC5)C4)C3)C3C=C(C#N)C=CC32)nc1 (racemic)
in the range around 5.5 nM | CCOc1ccc(OC)c(C2(N3CC4(CN(C5CCN(C)CC5)C4)C3)C(=O)N(S(=O)(=O)c3ccc(OC)cn3)C3C=CC(C#N)=CC32)c1 (racemic; form 1)
in the range around 5.5 nM | CCOc1ccc(OC)cc1[C@]1(N2CC3(CN(C4CCN(C)CC4)C3)C2)C(=O)N(S(=O)(=O)c2ccccn2)C2C=CC(C#N)=CC21 (stereo not given in full)
in the range around 5.5 nM | COc1ccc(S(=O)(=O)N2C(=O)C(c3ccccc3OC)(N3CC4(CN(C5CCN(C6COC6)CC5)C4)C3)C3C=C(C#N)C=CC32)nc1 (single isomer, unassigned; (+))
